{"source": "ChEMBL document CHEMBL5725990", "about": "“Inhibitors of Bruton's tyrosine kinase” (2017)", "biological_target": "Tyrosine-protein kinase BTK (Homo sapiens, UniProt Q06187)", "sequence (Q06187 whole entry)": "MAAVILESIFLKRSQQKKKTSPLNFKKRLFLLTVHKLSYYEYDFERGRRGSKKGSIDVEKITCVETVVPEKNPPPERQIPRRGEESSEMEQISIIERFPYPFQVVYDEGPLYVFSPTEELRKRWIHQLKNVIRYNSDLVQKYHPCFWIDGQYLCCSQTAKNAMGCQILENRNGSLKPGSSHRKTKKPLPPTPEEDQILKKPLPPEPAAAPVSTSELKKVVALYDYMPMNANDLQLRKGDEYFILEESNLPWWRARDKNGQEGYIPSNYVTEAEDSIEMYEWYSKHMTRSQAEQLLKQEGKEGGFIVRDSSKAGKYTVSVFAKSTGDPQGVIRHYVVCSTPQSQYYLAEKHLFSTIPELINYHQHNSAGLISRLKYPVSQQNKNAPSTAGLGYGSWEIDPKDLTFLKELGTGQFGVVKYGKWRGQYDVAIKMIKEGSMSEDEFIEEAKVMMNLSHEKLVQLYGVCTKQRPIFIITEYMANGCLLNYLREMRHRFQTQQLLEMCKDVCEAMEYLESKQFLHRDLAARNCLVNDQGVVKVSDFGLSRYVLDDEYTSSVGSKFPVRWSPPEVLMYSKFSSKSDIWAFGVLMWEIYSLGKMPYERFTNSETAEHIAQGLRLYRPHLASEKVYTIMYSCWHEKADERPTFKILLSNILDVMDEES", "experiment": "Btk In Vitro Inhibitory Assay: Human Btk kinase (Genbank accession # NP_000052) was purified from insect cells as a full-length construct containing a N-terminal 6×-His tag. Btk kinase activity was determined using a radiometric filter binding assay. Measurements are performed in a low μL reaction volume 384-well assay plates. BTK enzyme (8 nM final in reaction), inhibitor (at requested doses), and 0.2 mg/mL peptide substrate (Poly-Glu-Tyr, 4:1 ratio) are incubated in a reaction buffer composed of 20 mM Hepes (pH 7.5), 10 mM MgCl2, 1 mM EGTA, 0.02% Brij35, 0.02 mg/ml BSA, 0.1 mM Na3VO4, 2 mM DTT, 1% DMSO for 15 min. followed by addition of 1 μM ATP to start the assay. Kinase reactions are carried out for 120 min. at room temperature. The reaction was stopped by spotting of reaction sample onto P81 cationic exchange paper (Whatman). Unbound phosphate was removed by extensive washing of filters in 0.75% Phosphoric acid.", "data": [{"compound": "NC(=O)c1nnc(N2CCC[C@@H](NC(=O)c3ccc4nccn4c3)C2)nc1Nc1ccc(C(=O)N2CCOCC2)cc1", "values": [{"measurement": "IC50", "value": "< 0.01", "unit": "µM"}]}, {"compound": "NC(=O)c1ncc(N2CCC[C@@H](N3CCN(c4cccc(Cl)c4)C3=O)C2)nc1Nc1ccc(C2CCN(C3CCCC3)CC2)cc1", "values": [{"measurement": "IC50", "value": "< 0.01", "unit": "µM"}]}]}
